Reference: US12558337B2, “Formulations comprising melflufen” (ON[…], priority 2019, dated 2026)
“And” between values parts separate entries of the source, which are not always exact repeats. Equal values may be shown once.

Columns and labels:
Type in all cases: physicochemical
[1] = Stability of isolated melflufen freebase oil; settings: colorless oil; room temperature; several days
Procedure: The hydrochloride salt of melflufen may be prepared as disclosed in WO 01/96367, which is incorporated herein by reference. Ethanesulfonate, maleate and p-toluenesulfonate salts of melflufen were prepared by treating the melflufen freebase with 1 equivalent of the respective acid in dichloromethane or ethyl acetate. If required, heptane was added to initiate salt precipitation. All salts were isolated as white solids in a 1:1 ratio of melflufen and counterion, and dried under high vacuum. Melflufen freebase was prepared from melflufen hydrochloride using NaHCO3 and dichloromethane (DCM). Melflufen hydrochloride was suspended in 100 mL of dichloromethane before an ice-cold solution of NaHCO3(aq) was added. The mixture was shaken for 30 seconds and the phases were allowed to settle. The organic phase was collected and dried over MgSO4 before the solvent was removed in vacuo at 0° C. Melflufen freebase was isolated as a colorless oil. No degradation of melflufen was observed by HPLC analysis and the oil was stable at room temperature for several days.

[2] = Solubility of melflufen (OPD-5) in propylene glycol; settings: approximately 20 mg/mL prepared
Procedure: (§1) The formulation was prepared by dissolving melflufen (OPD-5) at a concentration of approximately 20 mg/mL (excluding the mass of the counterion) in propylene glycol (1,2-Propanediol, EMPROVE® exp Ph Eur, BP, USP, Merck Chemicals, #K49954578). 1 mL of the melflufen solution was added into each vial. The filled vials were then closed with a rubber stopper and crimp capped. The 1 mL samples were analysed at T0 (i.e. before storage) and after storage for approximately 4 weeks (T1), 8 weeks (T2), 12 weeks (T3), and 24 weeks (T4) at 2-8° C., 25° C. or 40° C.

[3] = Stability study of formulation containing melflufen (OPD-5) and propylene glycol at −20° C. and −70° C.; settings: in propylene glycol
Procedure: 536.25 mg of melflufen (OPD-5) was weighed into a […] volumetric flask. The flask was then filled with propylene glycol (W294004-1 Kg-K, Lot no: MKCD8681, Sigma-Aldrich). The resulting mixture was vortexed for 3 minutes. The mixture was then stirred for 15 minutes at 28° C. with occasional vortexing to furnish a clear solution having a melflufen concentration of approximately 20 mg/mL (excluding the mass of the counterion). The solution was aliquoted into 1 mL vials and stored at −70° C. or at −20° C.
The concentration and purity (% relative peak area) of melflufen in the propylene glycol formulation was analysed at time 0 (T0b) and then every 1 month by RP-HPLC. For each time point, two replicated were analysed (i.e. two separate vials of the formulation). At each time point the vials were visually checked for any color change or precipitation.
RP-HPLC analysis was performed using an Agilent 1100 series Liquid Chromatography, and an XBridge® C18 (2.1×100 mm, 3.5 μm) column. The method used a 5-95% B gradient over 6 min and a flow of 0.8 mL/min (mobile phase A: 0.1% formic acid in water; mobile phase B: 0.1% formic acid in acetonitrile), a column temperature of 55° C., a sampler temperature of 25° C., and UV detection at 262 nm. Samples were then diluted to 200 μg/mL concentration in DMA before injection into RP-HPLC. An injection volume of 5 μL was used.

[4] = Stability study of formulation containing melflufen (OPD-5) and propylene glycol at 2-8° C., 25° C. and 40° C. (RP-HPLC, visual appearance); settings: in propylene glycol; for change in melflufen concentration on storage: up to 168 days
Procedure: (§2) Vials (2R type 1 glass vials, Gerresheimer, #35601558) were washed with purified water (≤0.2 μmS/cm, <10 ppb Total Organic Carbon (TOC)). Afterwards, the vials were dried and heat-treated at 300° C. for 2 hours. Rubber stoppers were autoclaved at 121° C. and 2 bar for 15 min.
as §1
(§3) RP-HPLC analysis was performed using an Agilent 1100 series Liquid Chromatography, and an)(Bridge® Shield (RP18, 3.5 μm, 4.6×150 mm) column. The method used a 0-80% B gradient over 20 min and a flow of 1.0 mL/min (mobile phase A: 10 mM ammonium acetate pH 5.0/acetonitrile 86/14 v/v; mobile phase B: acetonitrile), a column temperature of 20° C., a sampler temperature of 5° C., and UV detection at 262 nm. The pharmaceutical formulations were diluted to a melflufen concentration of 0.8 mg/mL using an ethanol/acetonitrile diluent (3:7 v/v) prior to RP-HPLC analysis.

[5] = Stability study of formulation containing melflufen (OPD-5) and PEG 300 at 2-8° C., 25° C. and 40° C. (RP-HPLC, visual appearance); settings: in PEG 300; for change in melflufen concentration on storage: up to 164 days
Procedure: as §2
(§4) The formulation was prepared by dissolving melflufen (OPD-5) at a concentration of approximately 20 mg/mL (excluding the mass of the counterion) in polyethylene glycol (polyethylene glycol 300, Emprove exp., Ph. Eur, Merck Chemicals, #K47544702). 1 mL of the melflufen solution was added into each vial. The filled vials were then closed with a rubber stopper and crimp capped. The 1 mL samples were analysed at T0 (i.e. before storage) and after storage for approximately 4 weeks (T1a), 8 weeks (T2a), 12 weeks (T3a), and 24 weeks (T4a) at 2-8° C., 25° C. or 40° C.
as §3, with “an XBridge®” for “an)(Bridge®”

[6] = Solubility of melflufen (OPD-5) in PEG 300; settings: approximately 20 mg/mL prepared
Procedure: as §4

[7] = 2-8° C., T1 (31 days), hydrochloride
[8] = 2-8° C., T4 (168 days), hydrochloride
[9] = 25° C., T1 (31 days), hydrochloride
[10] = 25° C., T3 (98 days), hydrochloride
[11] = 25° C., T4 (168 days), hydrochloride
[12] = 40° C. (accelerated storage condition), over time
[13] = 2-8° C., T1a (26 days), hydrochloride
[14] = 2-8° C., T2a (54 days), hydrochloride
[15] = 2-8° C., T3a (94 days), hydrochloride
[16] = 25° C., T1a (26 days), hydrochloride
[17] = 25° C., T2a (54 days), hydrochloride
[18] = 25° C., T3a (94 days), hydrochloride
[19] = 25° C., T4a (164 days), hydrochloride

Q: For `CCOC(=O)[C@H](Cc1ccc(F)cc1)NC(=O)[C@@H](N)Cc1ccc(N(CCCl)CCCl)cc1` [Melflufen freebase, L-Melphalanyl-4-fluoro-L-phenylalanine ethyl ester], which “stability of the oil” value [1] is on record?
A: stable

Q: With `Cl.[2H]C([2H])([2H])C([2H])([2H])OC(=O)[C@H](Cc1ccc(F)cc1)NC(=O)[C@@H](N)Cc1ccc(N(CCCl)CCCl)cc1` [OPD-5, (^2H5)ethyl (2S)-2-[(2S)-2-amino-3-{4-[bis(2-chloroethyl)amino]phenyl}propanamido]-3-(4-fluorophenyl)propanoate hydrochloride] as the molecule, how does the “solubility in propylene glycol” value [2] read?
A: readily soluble

Q: And the “time for which the formulation was stable” value ([3]; −20° C.)?
A: at least 6 months

Q: What about the “change in melflufen (OPD-5) concentration” value ([3]; −20° C., 6 month test period) of the same molecule?
A: no notable change

Q: And the “melflufen purity retained (relative to the melflufen purity before storage of the formulation)” value ([3]; −20° C., 6 months)?
A: greater than 99.5%

Q: And the “colour change or precipitation (visual check)” value ([3]; −70° C. and −20° C., 6-8 month test period)?
A: No colour change or precipitation

Q: And the “change in melflufen (OPD-5) concentration” value ([3]; −70° C., 8 month test period)?
A: no notable change

Q: What about the “melflufen purity retained (relative to the melflufen purity before storage of the formulation)” value ([3]; −70° C., 8 months) of the same molecule?
A: greater than 99.5%

Q: What about the “Concentration of melfufen (ODP-5)” value [4, 7] of the same molecule?
A: 20100 µg/mL and 20200 µg/mL

Q: And the “Purity of melfufen (ODP-5)” value [4, 7]?
A: 99.1 % relative peak area and 99.3 % relative peak area

Q: And the “Purity of melfufen (ODP-5)” value ([4]; 2-8° C., T2 (59 days))?
A: 99.2 % relative peak area

Q: And the “Concentration of melfufen (ODP-5)” value ([4]; 2-8° C., T2 (59 days), hydrochloride)?
A: 19800 µg/mL and 20300 µg/mL

Q: And the “Concentration of melfufen (ODP-5)” value ([4]; 2-8° C., T3 (98 days))?
A: 20500 µg/mL

Q: And the “Purity of melfufen (ODP-5)” value ([4]; 2-8° C., T3 (98 days), hydrochloride)?
A: 99.0 % relative peak area and 98.5 % relative peak area

Q: And the “Concentration of melfufen (ODP-5)” value [4, 8]?
A: 18400 µg/mL and 18300 µg/mL

Q: What about the “Purity of melfufen (ODP-5)” value [4, 8] of the same molecule?
A: 95.4 % relative peak area and 95.8 % relative peak area

Q: And the visual appearance ([4]; 2-8° C., at each time point (T1, T2, T3 and T4))?
A: no visible colouration

Q: What about the “change in melflufen concentration on storage” value (“change … on storage” for short) ([4]; 2-8° C.) of the same molecule?
A: no significant change

Q: And the “Concentration of melfufen (ODP-5)” value [4, 9]?
A: 15700 µg/mL and 15800 µg/mL

Q: And the “Purity of melfufen (ODP-5)” value [4, 9]?
A: 89.0 % relative peak area and 89.3 % relative peak area

Q: What about the “Purity of melfufen (ODP-5)” value ([4]; 25° C., T2 (59 days)) of the same molecule?
A: 81.3 % relative peak area

Q: What about the “Concentration of melfufen (ODP-5)” value ([4]; 25° C., T2 (59 days), hydrochloride) of the same molecule?
A: 14100 µg/mL and 12200 µg/mL

Q: And the “Concentration of melfufen (ODP-5)” value [4, 10]?
A: 8800 µg/mL and 8400 µg/mL

Q: What about the “Purity of melfufen (ODP-5)” value [4, 10] of the same molecule?
A: 68.1 % relative peak area and 66.6 % relative peak area

Q: And the “Concentration of melfufen (ODP-5)” value [4, 11]?
A: 5100 µg/mL and 4900 µg/mL

Q: What about the “Purity of melfufen (ODP-5)” value [4, 11] of the same molecule?
A: 49.9 % relative peak area and 48.7 % relative peak area

Q: What about the visual appearance ([4]; 25° C., over time (T1 to T4)) of the same molecule?
A: yellow to brown colouration that increased in intensity over time

Q: What about the “change … on storage” value ([4]; 25° C.) of the same molecule?
A: decrease over time

Q: And the visual appearance [4, 12]?
A: yellow to brown colouration that increased in intensity over time

Q: What about the “melflufen purity retained (relative to the melflufen purity before storage of the formulation)” value ([4]; about 5° C. (2 to 8° C.), over 50 days) of the same molecule?
A: greater than 95%

Q: And the visual appearance ([5]; 2-8° C., 26 days (T1a))?
A: slight yellow colouration

Q: What about the visual appearance ([5]; 2-8° C., 54 days (T2a), 94 days (T3a) and 164 days (T4a)) of the same molecule?
A: small increase in the intensity of the yellow colouration

Q: What about the “Concentration of melfufen (ODP-5)” value [5, 13] of the same molecule?
A: 19900 µg/mL and 19800 µg/mL

Q: And the “Purity of melfufen (ODP-5)” value [5, 13]?
A: 96.7 % relative peak area and 96.9 % relative peak area

Q: And the “Concentration of melfufen (ODP-5)” value [5, 14]?
A: 19900 µg/mL and 19300 µg/mL

Q: What about the “Purity of melfufen (ODP-5)” value [5, 14] of the same molecule?
A: 95.2 % relative peak area and 95.5 % relative peak area

Q: What about the “Concentration of melfufen (ODP-5)” value [5, 15] of the same molecule?
A: 18700 µg/mL and 18900 µg/mL

Q: And the “Purity of melfufen (ODP-5)” value [5, 15]?
A: 92.7 % relative peak area and 92.6 % relative peak area

Q: And the “Concentration of melfufen (ODP-5)” value ([5]; 2-8° C., T4a (164 days))?
A: 18700 µg/mL

Q: And the “Purity of melfufen (ODP-5)” value ([5]; 2-8° C., T4a (164 days), hydrochloride)?
A: 91.4 % relative peak area and 91.3 % relative peak area

Q: And the “change … on storage” value ([5]; 2-8° C.)?
A: no significant change

Q: What about the “Concentration of melfufen (ODP-5)” value [5, 16] of the same molecule?
A: 18100 µg/mL and 17900 µg/mL

Q: And the “Purity of melfufen (ODP-5)” value [5, 16]?
A: 89.3 % relative peak area and 89.6 % relative peak area

Q: What about the “Concentration of melfufen (ODP-5)” value [5, 17] of the same molecule?
A: 14400 µg/mL and 15300 µg/mL

Q: What about the “Purity of melfufen (ODP-5)” value [5, 17] of the same molecule?
A: 83.8 % relative peak area and 85.1 % relative peak area

Q: What about the “Concentration of melfufen (ODP-5)” value [5, 18] of the same molecule?
A: 11200 µg/mL and 11300 µg/mL

Q: And the “Purity of melfufen (ODP-5)” value [5, 18]?
A: 74.2 % relative peak area and 74.7 % relative peak area

Q: What about the “Concentration of melfufen (ODP-5)” value [5, 19] of the same molecule?
A: 9800 µg/mL and 9500 µg/mL

Q: What about the “Purity of melfufen (ODP-5)” value [5, 19] of the same molecule?
A: 70 % relative peak area and 68.1 % relative peak area

Q: What about the visual appearance ([5]; 25° C., over time (T1a to T4a)) of the same molecule?
A: yellow to brown colouration that increased in intensity over time

Q: And the “change … on storage” value ([5]; 25° C.)?
A: decrease over time

Q: What about the visual appearance [5, 12] of the same molecule?
A: yellow to brown colouration that increased in intensity over time

Q: What about the “solubility in PEG 300” value [6] of the same molecule?
A: readily soluble
